Source: patent US11142539B2, “Phosphinogold(I) complexes and methods of treating cancer” (King Fahd University of Petroleum and Minerals, priority 2020, dated 2021)
“Also recorded” adds a separate entry of the source.

Tests used:
[1] = tested on: HeLa (human cervical cancer) cell line; assay: Cell Titer-Glo luminescence-based cell growth inhibition assay, HeLa; conditions: HeLa cells, 72 hours incubation, spread in brackets
Protocol: (§1) The cell growth inhibition effects of gold(I) complexes 1-4 and cisplatin were measured by the Cell Titer-Glo® luminescence-based assay against the A549 (human lung carcinoma), HeLa (human cervical cancer), and HepG2 (human liver cancer) cell lines according to manufacturer's protocol. Briefly, the cell suspensions were added to each well of 384-w plate at a suitable density (total volume of 40 μL). The margin wells of plate were filled with PBS buffer. The gold(I) complexes were added at various concentrations in triplicate (10 μL solutions of the complex added to the plate), then the plate was incubated for 72 hours in 5% CO2 incubator at 37° C. After that the Cell Titer reagent was added to each tested well and stirred for 2 minutes on an orbital shaker. […] Luminescence signals were measured on PHERAstar Plus. […] The potential effect of the testing complexes on cell growth inhibition expressed as IC50 values was calculated by the formula below: Cell growth Inhibition %=100-100*(Luminescencecomplex)/(LuminescenceDMSO) Cell viability %=100*(Luminescencecomplex)/(LuminescenceDMSO)
(§2) The gold(I) complexes 1-4 and cisplatin were examined for their cell growth inhibition effects against A549, HeLa, and HepG2 human cancer cell lines using Cell Titer-Glo® luminescence-based assay. […]

[2] = tested on: HepG2 (human liver cancer) cell line; assay: Cell Titer-Glo luminescence-based cell growth inhibition assay, HepG2; conditions: HepG2 cells, 72 hours incubation, spread in brackets
Protocol: as §1, §2

[3] = tested on: A549, HeLa, and HepG2 human cancer cell lines; assay: Cell Titer-Glo cell growth inhibition, summary statements over all three cell lines; type: cell-based; conditions: with respect to cisplatin
Protocol: as §1, §2

N.N.[Cl][Pt][Cl] [Cisplatin, cisplatin]
IC50 [1]: 21.4 µM
IC50 [2]: 9.6 µM

CN(C)C(=S)[S][Au][PH](c1ccccc1)(c1ccccc1)[C@@H]1CCCC[C@H]1N [gold(I) complex 2]
inhibition of cell proliferation (in words) [3]: excellent inhibition of cell proliferation; also recorded: best inhibition among the three

N[C@@H]1CCCC[C@H]1[PH]([Au][Cl])(c1ccccc1)c1ccccc1 [gold(I) complex 1, [Au(ACP)Cl]]
inhibition of cell proliferation (in words) [3]: excellent inhibition of cell proliferation
